Experimental findings from patent publication US4732970A, “Antitumor amino acid and peptide derivatives of 1,4-bis(aminoalkyl and hydroxy-aminoalkyl)amino)-5,8-dihydroxyanthraquinones” (priority 1986, dated 1988) are described below.

The structures appear in SMILES notation.

The subject of this assay is lymphocytic leukemia P388. The experiment in a line: Lymphocytic Leukemia P388 Test. It counts as in vivo, BDF1 mice. The following applies: for Median Survival: BDF1 mice; for T/C × 100 (%): ratio of survival time treated/control. On the procedure: The animals used were BDF1 mice, all of one sex, weighing a minimum of 18 g and all within a 3 g weight range. There were 5 or 6 mice per test group. The tumor transplant was by intraperitoneal injection of 0.5 ml of dilute ascitic fluid containing 10^6 cells of lymphocytic leukemia P388. The test compounds were administered intraperitoneally on days 1, 5 and 9 (relative to tumor inocu-lation) at various doses. The animals were weighed and survivors recorded on a regular basis for 60 days. The median survival time and the ratio of survival time for treated (T)/control (C) animals were calculated.

Where [1] appears, read: dose 0.75 mg/kg intraperitoneally on days 1, 5 and 9.
Where [2] appears, read: dose 1.5 mg/kg intraperitoneally on days 1, 5 and 9.
Where [3] appears, read: dose 3 mg/kg intraperitoneally on days 1, 5 and 9.

With `CC(C)(C)OC(=O)N[C@@H](CO)C(=O)NCCNc1ccc(NCCNC(=O)[C@H](CO)NC(=O)OC(C)(C)C)c2c1C(=O)c1c(O)ccc(O)c1C2=O` (relative stereo) [Example 14, [S-(R*,R*)]-N,N'-[(9,10-Dihydro-5,8-dihydroxy-9,10-dioxo-1,4-anthracenediyl)bis[imino-2,1-ethanediylimino-[1-(hydroxymethyl)-2-oxo-2,1-ethanediyl]]]bis-carbamic acid, bis(1,1-dimethylethyl)ester], the “Median Survival” value is, setting by setting: under setting [1], 13.5 days; under setting [2], 16.0 days; under setting [3], 17.5 days. Also, the “T/C × 100 (%)” value runs as follows: under setting [1], 123%; under setting [2], 145%; under setting [3], 159%.
Take `Cl.Cl.N[C@@H](Cc1ccccc1)C(=O)NCCNc1ccc(NCCNC(=O)[C@@H](N)Cc2ccccc2)c2c1C(=O)c1c(O)ccc(O)c1C2=O` (relative stereo) [Example 17, [S-(R*,R*)]-N,N'-[(9,10-Dihydro-5,8-dihydroxy-9,10-dioxo-1,4-anthracenediyl)bis(imino-2,1-ethanediyl)]bis[2-aminobenzenepropanamide], dihydrochloride]: the “Median Survival” value by setting is: under setting [1], 22.5 days; under setting [2], 23.0 days; under setting [3], 19.5 days. In addition, the “T/C × 100 (%)” value is, setting by setting: under setting [1], 188%; under setting [2], 192%; under setting [3], 163%.
Take `CC[C@H](C)[C@H](N)C(=O)NCCNc1ccc(NCCNC(=O)[C@@H](N)[C@@H](C)CC)c2c1C(=O)c1c(O)ccc(O)c1C2=O.Cl.Cl` (relative stereo) [Example 21, [S-(R*,R*,R*,R*)]-N,N'-[(9,10-Dihydro-5,8-dihydroxy-9,10-dioxo-1,4-anthracenediyl)bis(imino-2,1-ethanediyl)]bis-[2-amino-3-methylpentanamide], dihydrochloride]: the “Median Survival” value worked out at 18.5 days under setting [1], 18.0 days under setting [2] and 22.5 days under setting [3]. The “T/C × 100 (%)” value by setting is: under setting [1], 185%; under setting [2], 180%; under setting [3], 225%.
Take `CSCC[C@H](N)C(=O)NCCNc1ccc(NCCNC(=O)[C@@H](N)CCSC)c2c1C(=O)c1c(O)ccc(O)c1C2=O.Cl.Cl` (relative stereo) [Example 22, [S-(R*,R*)]N,N'(9,10-Dihydro-5,8-dihydroxy-9,10-dioxo-1,4-anthracenediyl)bis(imino-2,1-ethanediyl)]-bis[2-amino-4-(methylthio)butanamide], dihydrochloride]: the “Median Survival” value under setting [1] amounted to 17.0 days, the “Median Survival” value under setting [2] was found to be 20.5 days and the “Median Survival” value under setting [3] came out at 25.5 days. In addition, the “T/C × 100 (%)” value under setting [1] is listed as 170%, the “T/C × 100 (%)” value under setting [2] is given as 205% and the “T/C × 100 (%)” value under setting [3] is reported as 255%.
Regarding `CC(C)[C@H](N)C(=O)NCCNc1ccc(NCCNC(=O)[C@@H](N)C(C)C)c2c1C(=O)c1c(O)ccc(O)c1C2=O.Cl.Cl` (relative stereo) [Example 24, [S-(R*,R*)]-N,N'-[(9,10-Dihydro-5,8-dihydroxy-9,10-dioxo-1,4-anthracenediyl)bis(imino-2,1-ethanediyl)]bis-[2-Amino-3-methylbutanamide], dihydrochloride], the “Median Survival” value by setting is: under setting [1], 18.5 days; under setting [2], 20.0 days; under setting [3], 20.0 days. In addition, the “T/C × 100 (%)” value is, setting by setting: under setting [1], 185%; under setting [2], 200%; under setting [3], 200%.
On to `CC(C)C[C@@H](N)C(=O)N(CCO)CCNc1ccc(NCCN(CCO)C(=O)[C@H](N)CC(C)C)c2c1C(=O)c1c(O)ccc(O)c1C2=O.O=C(O)C(F)(F)F.O=C(O)C(F)(F)F.O=C(O)C(F)(F)F` (relative stereo) [Example 29, [R-(R*,R*)]-N,N'-[(9,10-Dihydro-5,8-dihydroxy-9,10-dioxo-1,4-anthracenediyl)bis(imino-2,1-ethanediyl)]bis-[2-amino-N-(2-hydroxyethyl)-4-methylpentanamide]tris(trifluoroacetate)], for which the “Median Survival” value reads like this: under setting [1], 12.0 days; under setting [2], 13.0 days; under setting [3], 15.5 days. Moreover, the “T/C × 100 (%)” value by setting is: under setting [1], 109%; under setting [2], 118%; under setting [3], 141%.
Turning to `Br.Br.N[C@@H](CS)C(=O)NCCNc1ccc(NCCNC(=O)[C@@H](N)CS)c2c1C(=O)c1c(O)ccc(O)c1C2=O` (relative stereo) [Example 35, R-(R*,R*)]-N,N'-[(9,10-Dihydro-5,8-dihydroxy-9,10-dioxo-1,4-anthracenediyl)bis(imino-2,1-ethanediyl)]bis[2-amino-3-mercaptopropanamide], dihydrobromide], the “Median Survival” value runs as follows: under setting [1], 21.0 days; under setting [2], 23.0 days; under setting [3], 24.5 days. In addition, the “T/C × 100 (%)” value is on record as 210% under setting [1], 230% under setting [2] and 245% under setting [3].
Regarding `N[C@@H](CO)C(=O)NCCNc1ccc(NCCNC(=O)[C@@H](N)CO)c2c1C(=O)c1c(O)ccc(O)c1C2=O.O=C(O)C(F)(F)F.O=C(O)C(F)(F)F` (relative stereo) [Example 36, [S-(R*,R*)]-N,N'-(9,10-Dihydro-5,8-dihydroxy-9,10-dioxo-1,4-anthracenediyl)bis(imino-2,1-ethanediyl)]bis[2-amino-3-hydroxyropanamide]bis(trifluoroacetate)], the “Median Survival” value by setting is: under setting [1], 19.0 days; under setting [2], 19.0 days; under setting [3], 23.5 days. For the same compound, the “T/C × 100 (%)” value runs as follows: under setting [1], 173%; under setting [2], 173%; under setting [3], 214%.
Take `Cl.Cl.N[C@@H](Cc1ccc(O)cc1)C(=O)NCCNc1ccc(NCCNC(=O)[C@@H](N)Cc2ccc(O)cc2)c2c1C(=O)c1c(O)ccc(O)c1C2=O` (relative stereo) [Example 37, [S-(R*,R*)]-N,N'-[(9,10-Dihydro-5,8-dihydroxy-9,10-dioxo-1,4anthracenediyl)bis(imino-2,1-ethanediyl)]bis-[2,-amino-3-(4-hydroxyphenyl)-propanamide, dihydrochloride]: the “Median Survival” value by setting is: under setting [1], 25.0 days; under setting [2], 23.5 days; under setting [3], 23.5 days. In addition, the “T/C × 100 (%)” value by setting is: under setting [1], 227%; under setting [2], 214%; under setting [3], 214%.
In the case of `CC(C)(C)OC(=O)C[C@H](NC(=O)OCC1c2ccccc2-c2ccccc21)C(=O)NCCNc1ccc(NCCNC(=O)[C@H](CC(=O)OC(C)(C)C)NC(=O)OCC2c3ccccc3-c3ccccc32)c2c1C(=O)c1c(O)ccc(O)c1C2=O` (relative stereo) [Example 38, [S-R*,R*)]-4,4'-[(9,10-Dihydro-5,8-dihydroxy-D9,10-dioxo-1,4-anthracenediyl)bis(imino-2,1-ethanediylimino)]bis[3-[[9H-fluoren-9-ylmethoxycarbonyl]amino]-4-oxobut anoic acid],bis(1,1-dimethyl)ester], the “Median Survival” value reads like this: under setting [1], 13.0 days; under setting [2], 15.0 days; under setting [3], 16.0 days. For the same compound, the “T/C × 100 (%)” value turned out to be 108% under setting [1], 125% under setting [2] and 133% under setting [3].
`CC(C)(C)OC(=O)C[C@H](N)C(=O)NCCNc1ccc(NCCNC(=O)[C@@H](N)CC(=O)OC(C)(C)C)c2c1C(=O)c1c(O)ccc(O)c1C2=O` (relative stereo) [Example 39, [S-(R*,R*)]-4,4'-[(9,10-Dihydro-5,8-dihydroxy-9,10-dioxo-1,4-anthracenediyl)bis(imino-2,1-ethanediylimino)]bis[3-amino-4-oxobutanoic acid]bis(1,1-dimethylethyl)ester]: the “Median Survival” value turned out to be 21.5 days under setting [1], 19.5 days under setting [2] and 19.0 days under setting [3]. Moreover, the “T/C × 100 (%)” value reads like this: under setting [1], 179%; under setting [2], 163%; under setting [3], 158%.
Regarding `N[C@@H](CC(=O)O)C(=O)NCCNc1ccc(NCCNC(=O)[C@@H](N)CC(=O)O)c2c1C(=O)c1c(O)ccc(O)c1C2=O.O=C(O)C(F)(F)F.O=C(O)C(F)(F)F` (relative stereo) [Example 40, S-(R*,R*)]-4,4'-[(9,10-Dihydro-5,8-dihydroxy-9,10-dioxo-1,4-anthracenediyl)bis(imino-2,1-ethanediylimino)]bis[3amino-4-oxobutanoic acid]bis(trifluoroacetate)], the “Median Survival” value under setting [1] is 23.0 days, the “Median Survival” value under setting [2] was found to be 19.5 days and the “Median Survival” value under setting [3] was 23.0 days. The “T/C × 100 (%)” value runs as follows: under setting [1], 192%; under setting [2], 163%; under setting [3], 192%.
